One assay concerns NL 4-3. Nature of the assay: microbe, parasite or virus in culture. It counts as cell-based, HIV-1. Conditions: for fold change: fold change in EC50. The procedure: (§1) The integrase encoding sequence was amplified from either wildtype HIV-1 (IIIB) or NL4.3 virus, or HXB2D site-directed mutant viruses containing mutations in integrase (such as T66I, S153Y, M154I, or combinations thereof) (Hazuda et al., Science 2000, 287, 646-650), or patient samples. Starting from RNA, extracted from virus supernatant or plasma using the QIAamp® viral RNA extraction kit (Qiagen), cDNA was synthesized by reverse transcription (Expand TM reverse transcriptase, 30 min at 42°C) with the primer 3'EGINT10 (SEQ ID NO 11), followed by a nested PCR. The outer PCR was performed with the primers 5'EGINT1 (SEQ ID NO 1) and 3'EGINT10 (SEQ ID NO 11) (ΔR-IN-vif construct) or 5'EGINT3 (SEQ ID NO 4) and 3'EGINT10 (SEQ ID NO 11) (ΔIN construct) (Expand™ High Fidelity PCR system), and 5 µl of the outer product was used for an inner PCR with primers 5'EGINT2 (SEQ ID NO 3) and 3'EGINT11 (SEQ ID NO 12) (ΔR-IN-vif construct) or 5'EGINT4 (SEQ ID NO 5) and 3'EGINT6 (SEQ ID NO 7) (ΔIN construct). In a second protocol the outer primers were identical as described above, the inner primers are 5'EGINT5 (SEQ ID NO 6) and 3'EGINT6 (SEQ ID NO 7). The amplicons can be used for genotyping and phenotyping. Cycling conditions for both PCRs are denaturation for 3 min at 95°C, followed by 30 cycles of 1 min 90°C, 30 sec 55°C, and 2 min 72°C. A final extension was performed at 72°C for 10 min. For recombination, PCR products are purified using the QiaQuick® 96 PCR BioRobot kit (Qiagen), according to the manufacturer's protocol. If the protocol starts from DNA containing the HIV material such as proviral DNA, the reverse transcriptase step is not needed. The nested approach is also not needed when starting from proviral DNA. The obtained amplicons were sequenced using the primers: In_seq1F (SEQ ID NO 17), In_seq2F (SEQ ID NO 18), In_seq3F (SEQ ID NO 19), IN_seq1R (SEQ ID NO 20), IN_seq2R (SEQ ID NO 21), and IN_seq3R (SEQ ID NO 22).
(§2) A ΔR-IN-vif or ΔIN deletion construct was generated by site-directed mutagenesis on the template pSV40HXB2D with the primers MUT-IN1 (SEQ ID NO 13) and MUT-IN2 (ΔR-IN-vif construct) (SEQ ID NO 14) or MUT-IN3 (SEQ ID NO 15) and MUT-IN4 (SEQ ID NO 16) (ΔIN construct) (protocol Site-directed mutagenesis kit, Stratagene). After DpnI digestion for removal of the methylated template DNA, the construct was digested with SmaI and ligated to circulize the plasmid. The plasmid was transformed into competent cells such as Top10 cells, and colonies were screened for the presence of the deletion construct. The IN-deletion construct was checked by sequence analysis with primers 5'EGINT1 (SEQ ID NO 1) or […] and 3'EGINT10 (SEQ ID NO 11) or 3'EGINT11 (SEQ ID NO 12). For use in recombination experiments, large-scale plasmid DNA preparations were linearized by SmaI digestion and recombined with PCR amplified integrase genes from wild type, mutant, or patient viruses. The plasmid containing the integrase deletion (ΔIN) has been deposited pSV40HXB2D-ΔIN. The sequence of said plasmid is 14377 nucleotides long. The ΔR-IN-vif deletion construct is 13975 nucleotides long. The pSV40HXB2D-ΔIN was deposited at the Belgian Coordinated Collections of Micro-Organisms located at the Universiteit Gent - Laboratorium voor Moleculaire Biologie on August 5, 2002 and the accession number is LMBP 4574.
(§3) Recombinant virus was produced by co-transfection by electroporation of the SmaI-linearized IN-deletion construct and the integrase amplicon into MT4 cells or MT4 cells equipped with an LTR driven reporter gene construct. Production of recombinant virus was evaluated by scoring the cytopathogenic effect (CPE) that is induced by HIV-infection of MT4 cells or by the LTR-driven reporter signal induced by HIV infection in MT4 reporter cells.

Another assay concerns WT III B. Nature of the assay: microbe, parasite or virus in culture. It counts as cell-based, HIV-1. Conditions: for fold change: fold change in EC50. The procedure:
as §1, §2, §3

For another assay, the system named is M154I mutation. The assay is described as follows: Antiviral assay with recombinant virus generated from site-directed mutant virus. Type of assay: cell-based, HIV. The procedure: as §1
(§4) Recombinant virus was produced by co-transfection by electroporation of the SmaI-linearized IN-deletion construct and the integrase amplicon into MT4 cells or MT4 cells equipped with an LTR driven reporter gene construct. Production of recombinant virus was evaluated by scoring the cytopathogenic effect (CPE) that is induced by HIV-infection of MT4 cells or by the LTR-driven reporter signal induced by HIV infection in MT4 reporter cells. Green fluorescent protein was used as the reporter signal. Viruses are harvested and titrated at maximum CPE. For recombination the deletion construct pSV40HXB2D-ΔIN was used. Recombination experiments were performed with amplicon from wildtype HIV IIIB and NL4.3, and patient sample 146514 generated by both primer sets. For each recombination 2 µg amplicon was co-transfected with 10 µg SmaI-digested pSV40HXB2D-ΔIN by electroporation into MT4-LTR-EGFP cells. Virus stocks were titrated and tested in an antiviral experiment on a reference panel including nucleoside reverse transcriptase inhibitors (NRTI), non- nucleoside reverse transcriptase inhibitors (NNRTI), protein inhibitor (PR), entry and integrase (IN) inhibitors (Table 2). Recombination was checked by nucleic acid sequence analysis using protocols known to the person skilled in the art. Sequencing primers which can be used are In_seq1F (SEQ ID NO 17), In_seq2F (SEQ ID NO 18), In_seq3F (SEQ ID NO 19), IN_seq1R (SEQ ID NO 20), IN_seq2R (SEQ ID NO 21), and IN_seq3R (SEQ ID NO 22).

The next assay concerns S153Y. The description is as above. It counts as cell-based, HIV. As to the method:
as §1, §4

A further assay concerns T661/M154I mutations. The assay is described as above. Type of assay: cell-based, HIV. The procedure:
as §1, §4

Another assay concerns T66I mutation. The description is as above. Type of assay: cell-based, HIV. As to the method:
as §1, §4

A further assay relates to T66I/S153Y mutations. The description is as above. Type of assay: cell-based, HIV. As to the method: as §1, §4
The mark [1] stands for this setting: Human immunodeficiency virus 1, AVE 1, NL 4-3, primer set 3.
Setting [2] is: Human immunodeficiency virus 1, NL43, AVE 4, NL4-3, primer set 4.
Setting [3] is: Human immunodeficiency virus 1, AVE 3, WT III B, primer set 3.
Where [4] appears, read: Human immunodeficiency virus 1, AVE 5, WT III B, primer set 4.

For orientation: EC50 means the concentration needed to bring the measured effect to its halfway point.

Turning to `CC(C)Oc1ccc(Cc2ccccc2)cc1C(=O)CC(=O)C(=O)O` [Compound 4, 2-(1-methylethyloxy)-α,γ dioxo-5-(phenylmethyl)-benzenebutanoic acid], the fold change with NL 4-3 (AVE 1, NL 4-3, primer set 3) is on record as 0,6; with NL 4-3 (AVE 4, NL4-3, primer set 4) it was 0,9; in the assay on WT III B (AVE 3, WT III B, primer set 3), 0,4; with WT III B (AVE 5, WT III B, primer set 4), 0,7. Also, the 50% effective concentration (EC50) with NL 4-3 (setting [1]) stood at 172 nM; in the assay with NL 4-3 (setting [2]), 242 nM; in the assay on WT III B (setting [3]) it was 106 nM; in the assay on WT III B (setting [4]), 186 nM. Further, the “fold increase in EC50” value in the assay on M154I mutation turned out to be 3 fold; in the assay with S153Y, 5 fold; with T661/M154I mutations it was 10 fold; in the assay on T66I mutation, 2 fold; in the assay with T66I/S153Y mutations, 10 fold.

As to `Cc1ccnc2c1NC(=O)c1cccnc1N2C1CC1` [NVP, Nevirapine], the fold change is recorded as 1,1 in the assay with NL 4-3 (AVE 1, NL 4-3, primer set 3); 1,7 in the assay with NL 4-3 (AVE 4, NL4-3, primer set 4); 0,8 with WT III B (AVE 3, WT III B, primer set 3); 1,6 in the assay on WT III B (AVE 5, WT III B, primer set 4). Besides, the EC50 in the assay with NL 4-3 (setting [1]) came to 97.6 nM; in the assay on NL 4-3 (setting [2]), 151 nM; in the assay on WT III B (setting [3]) it was 66.2 nM; in the assay on WT III B (setting [4]), 134 nM.

In the case of `CC(C)c1nc(CN(C)C(=O)N[C@H](C(=O)N[C@@H](Cc2ccccc2)C[C@H](O)[C@H](Cc2ccccc2)NC(=O)OCc2cncs2)C(C)C)cs1` [RTV, ritonavir], the fold change in the assay with NL 4-3 (AVE 1, NL 4-3, primer set 3) is on record as 0,6; in the assay with NL 4-3 (AVE 4, NL4-3, primer set 4), 1,2; with WT III B (AVE 3, WT III B, primer set 3), 0,3; with WT III B (AVE 5, WT III B, primer set 4), 1,0. Moreover, the EC50 in the assay on NL 4-3 (setting [1]) stood at 87.1 nM; with NL 4-3 (setting [2]) it was 172 nM; in the assay with WT III B (setting [3]), 44.9 nM; in the assay on WT III B (setting [4]) it was 154 nM.

For `CC(C)(C)NC(=O)[C@@H]1C[C@@H]2CCCC[C@@H]2CN1C[C@@H](O)[C@H](Cc1ccccc1)NC(=O)[C@H](CC(N)=O)NC(=O)c1ccc2ccccc2n1` [SQV, Saquinavir], the fold change was 1,2 in the assay on NL 4-3 (AVE 1, NL 4-3, primer set 3); 1,9 in the assay on NL 4-3 (AVE 4, NL4-3, primer set 4); 0,7 in the assay on WT III B (AVE 3, WT III B, primer set 3); 1,8 with WT III B (AVE 5, WT III B, primer set 4). Moreover, the EC50 worked out at 23.3 nM with NL 4-3 (setting [1]), 38.5 nM with NL 4-3 (setting [2]), 13 nM in the assay on WT III B (setting [3]) and 35.6 nM in the assay on WT III B (setting [4]).

(Values after patent EP1285971B1, “Methods for the phenotypic and genotypic assessment of the drug sensitivity of HIV integrase variants” (Tibotec Pharmaceuticals Ltd., priority 2001, dated 2003).)
